# Test results taken from ChEMBL document CHEMBL5038651, “Design, Synthesis, and Biological Evaluation of 2-((4-Bisarylmethyl-piperazin-1-yl)methyl)benzonitrile Derivatives as HCV Entry Inhibitors” (J Med Chem, 2022).
# Activity calls are given as the source filed them. The rule behind the calls is not given here.
# Key:
# [1] = (§1) Cytotoxicity against human Huh7.5 cells assessed as reduction in cell viability incubated for 96 hrs by MTT assay; type: toxicity, cell-based, Huh-7.5; details: Huh7.5 cells
# Hepatitis C virus [2] = experiment: Antiviral activity against HCV infected in human Huh7.5 cells incubated for 72 hrs by in-cell western assay; type: functional, organism-based, Hepacivirus hominis; details: Huh7.5, 72 h
# [3] = Selectivity index, ratio of CC50 for cytotoxicity against human Huh7.5.1 cells to EC50 for antiviral activity against HCV infected in human Huh7.5.1 cells; type: toxicity, cell-based
# [4] = target: Histamine H1 receptor (Homo sapiens) (UniProt P35367); experiment: Antagonist activity against H1 receptor (unknown origin) expressed in HEK cells at 1 uM relative to control; type: functional, cell-based
# Sequence of Histamine H1 receptor (Homo sapiens) (P35367 whole entry): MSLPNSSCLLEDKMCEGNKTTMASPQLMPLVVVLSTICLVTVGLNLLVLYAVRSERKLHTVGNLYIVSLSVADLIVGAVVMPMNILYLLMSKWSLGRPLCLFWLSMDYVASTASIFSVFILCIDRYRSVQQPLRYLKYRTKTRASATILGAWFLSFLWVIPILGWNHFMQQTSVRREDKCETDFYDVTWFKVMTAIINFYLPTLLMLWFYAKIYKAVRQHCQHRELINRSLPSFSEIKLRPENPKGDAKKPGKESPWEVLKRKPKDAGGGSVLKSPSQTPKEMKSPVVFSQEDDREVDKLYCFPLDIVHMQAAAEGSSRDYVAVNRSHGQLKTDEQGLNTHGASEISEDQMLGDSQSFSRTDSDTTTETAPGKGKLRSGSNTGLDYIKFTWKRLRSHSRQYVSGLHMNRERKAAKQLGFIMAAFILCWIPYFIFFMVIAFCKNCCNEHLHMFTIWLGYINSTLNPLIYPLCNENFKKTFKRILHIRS
# Hepatitis C virus [5] = experiment: Antiviral activity against HCV infected in human Huh7.5 cells assessed as reduction in viral RNA level preincubated for 2 hrs prior to viral infection and measured after 72 hrs by RT-qPCR analysis; type: functional, organism-based; details: Hepacivirus hominis, time 74.0 hrs
# Hepatitis C virus [6] = experiment: Antiviral activity against HCV infected in human Huh7.5 cells assessed as reduction in viral RNA level measured after 72 hrs by RT-qPCR analysis; type: functional, organism-based; details: Hepacivirus hominis
# Hepatitis C virus [7] = experiment: Antiviral activity against HCV infected in human Huh7.5 cells assessed as reduction in HCV core protein expression measured after 72 hrs by Western blotting analysis; type: functional, organism-based; details: Hepacivirus hominis
# Hepatitis C virus [8] = experiment: Antiviral activity against HCV infected in human Huh7.5 cells assessed as reduction in HCV core protein expression preincubated for 2 hrs followed by viral infection and measured after 72 hrs by Western blotting analysis; type: functional, organism-based; details: Hepacivirus hominis, time 74.0 hrs
# Hepatitis C virus [9] = experiment: Antiviral activity against HCV infected in human Huh7.5 cells assessed as reduction in HCV core protein expression pre-infected with virus for 2 hrs followed by compound addition and measured after 72 hrs by Western blotting analysis; type: functional, organism-based; details: Hepacivirus hominis
# Hepatitis C virus [10] = experiment: Antiviral activity against HCV infected in human Huh7.5 cells carrying HCV subgenomic replicons assessed as inhibition of viral replication at 1.4 uM; type: functional, organism-based; details: Hepacivirus hominis
# [11] = Selectivity index, ratio of CC50 for cytotoxicity against human Huh7.5 cells infected with HCVcc to EC50 for antiviral activity against HCVcc infected in human Huh7.5 cells; type: toxicity, cell-based; details: read-out: Ratio CC50/EC50
# Hepatitis C virus [12] = experiment: Antiviral activity against HCV infected in human Huh7.5 cells assessed as reduction in HCV core protein expression at 6.4 nM incubated for 72 hrs by in-cell western assay; type: functional, organism-based; details: Hepacivirus hominis
# Hepatitis C virus [13] = experiment: Antiviral activity against HCV infected in human Huh7.5 cells assessed as reduction in viral RNA level pre-infected with virus for 2 hrs followed by compound addition and measured after 72 hrs by RT-qPCR analysis; type: functional, organism-based; details: Hepacivirus hominis
# Huh-7.5 = experiment: as §1; type: toxicity, cell-based; details: huh-7.5, 96 h, 96 h
# Hepatitis C virus [14] = experiment: Antiviral activity against HCVcc infected in human Huh7.5 cells assessed as inhibition of viral replication; type: functional, organism-based, Hepacivirus hominis
# Hepatitis C virus [15] = experiment: Antiviral activity against HCV infected in human Huh7.5 cells carrying HCV subgenomic replicons assessed as inhibition of viral replication; type: functional, organism-based, Hepacivirus hominis
# [16] = Cytotoxicity against human Huh7.5 cells infected with HCVcc assessed as reduction in cell viability incubated for 96 hrs by MTT assay; type: toxicity, cell-based, Huh-7.5
# [17] = Cytotoxicity against human Huh7.5 cells carrying HCV subgenomic replicons assessed as reduction in cell viability incubated for 96 hrs by MTT assay; type: toxicity, cell-based, Huh-7.5
# Hepacivirus hominis = experiment: Binding affinity to HCV E1 protein at 12.5 to 200 uM by SPR analysis; details: dose 12.5-200 µM
# [18] = MRT in Sprague-Dawley rat at 15 mg/kg, po administered as single dose measured upto 24 hrs by LC-MS/MS analysis; type: ADME, organism-based; details: in vivo
# [19] = AUC (0 to infinity) in Sprague-Dawley rat at 15 mg/kg, po administered as single dose measured upto 24 hrs by LC-MS/MS analysis; type: ADME, organism-based; set-up: route oral, dose 15 mg/kg, time <=24; details: in vivo
# [20] = Half life in Sprague-Dawley rat at 15 mg/kg, po administered as single dose measured upto 24 hrs by LC-MS/MS analysis; type: ADME, organism-based; details: in vivo
# [21] = Tmax in Sprague-Dawley rat at 15 mg/kg, po administered as single dose measured upto 24 hrs by LC-MS/MS analysis; type: ADME, organism-based; details: in vivo
# [22] = Cmax in Sprague-Dawley rat at 15 mg/kg, po administered as single dose measured upto 24 hrs by LC-MS/MS analysis; type: ADME, organism-based; set-up: route oral, dose 15 mg/kg, time <=24; details: in vivo
# [23] = Plasma concentration in Sprague-Dawley rat at 15 mg/kg, po administered as single dose measured up to 24 hrs by LC-MS/MS analysis; type: ADME, organism-based
structure (smiles),measurement,setting,value
CN1CCCN(c2ccc(C#N)c(CN3CCN(Cc4ccccc4)CC3)c2)CC1,CC50 at 96 h,[1],> 100 µM
same,EC50,Hepatitis C virus [2],21.1 µM
CN(C)CCN(C)c1ccc(C#N)c(CN2CCN([C@H](c3ccccc3)c3ccc(Cl)cc3)CC2)c1,CC50 at 96 h,[1],8.23 µM
same,EC50,Hepatitis C virus [2],0.01 µM
same,selectivity ratio,[3]; read-out: Ratio CC50/EC50,823
CN(C)CCN(C)c1ccc(C#N)c(CN2CCN(c3ccc(C(F)(F)F)cc3)CC2)c1,CC50 at 96 h,[1],13.2 µM
same,EC50,Hepatitis C virus [2],0.013 µM
same,selectivity ratio,[3]; read-out: Ratio CC50/EC50,1010
CN(C)CCN(C)c1ccc(C#N)c(CN2CCN([C@@H](c3ccccc3)c3ccc(Cl)cc3)CC2)c1,CC50 at 96 h,[1],8.78 µM
same,EC50,Hepatitis C virus [2],0.016 µM
same,selectivity ratio,[3]; read-out: Ratio CC50/EC50,549
CN(C)CCN(C)c1ccc(C#N)c(CN2CCN(C(c3ccccc3)c3ccc(Cl)cc3)CC2)c1 (configuration not stated),CC50 at 96 h,[1],5.66 µM
same,EC50,Hepatitis C virus [2],0.004 µM
same,selectivity ratio,[3]; read-out: Ratio CC50/EC50,1410
same,Activity,[4],inactive
same,Activity,Hepatitis C virus [5],inactive
same,Activity,Hepatitis C virus [6],inactive
same,Activity,Hepatitis C virus [7],Active
same,Activity,Hepatitis C virus [8],inactive
same,Activity,Hepatitis C virus [9],Active
same,Activity,Hepatitis C virus [10],inactive
same,selectivity ratio,[11],649
same,Activity,Hepatitis C virus [12],Active
same,Activity,Hepatitis C virus [13],Active
CN(C)CCN(C)c1ccc(C#N)c(CN2CCN(c3ccc(Cl)cc3)CC2)c1,CC50 at 96 h,[1],21.2 µM
same,CC50,Huh-7.5,> 20 µM
same,EC50,Hepatitis C virus [2],0.175 µM
same,selectivity ratio,[3]; read-out: Ratio,> 114
same,selectivity ratio,[3]; read-out: Ratio CC50/EC50,> 81
same,EC50,Hepatitis C virus [14],0.26 µM
same,EC50,Hepatitis C virus [15],> 1.6 µM
same,CC50 at 96 h,[16],18.8 µM
same,CC50 at 96 h,[17],121 µM
same,Activity,Hepacivirus hominis,Active
same,Activity,[4],inactive
same,selectivity ratio,[11],72
same,Activity,Hepatitis C virus [12],inactive
CN1CCCN(c2ccc(C(F)(F)F)c(CN3CCN(C(c4ccc(F)cc4)c4ccc(F)cc4)CC3)c2)CC1,CC50 at 96 h,[1],1.45 µM
same,EC50,Hepatitis C virus [2],0.007 µM
same,selectivity ratio,[3]; read-out: Ratio CC50/EC50,206
CC(C)OC(=O)[C@H](C)N[P@](=O)(OC[C@H]1O[C@@H](n2ccc(=O)[nH]c2=O)[C@](C)(F)[C@@H]1O)Oc1ccccc1 [SOFOSBUVIR],CC50 at 96 h,[1],> 200 µM
same,EC50,Hepatitis C virus [2],0.082 µM
same,selectivity ratio,[3]; read-out: Ratio,> 3280
same,selectivity ratio,[3]; read-out: Ratio CC50/EC50,> 2440
same,EC50,Hepatitis C virus [14],0.129 µM
same,EC50,Hepatitis C virus [15],0.18 µM
same,CC50 at 96 h,[16],171 µM
same,CC50 at 96 h,[17],121 µM
same,Activity,Hepacivirus hominis,inactive
same,selectivity ratio,[11],1330
same,Activity,Hepatitis C virus [12],inactive
CN(C)CCN(C)c1ccc(C#N)c(CN2CCN(C(=O)c3ccc(Cl)cc3)CC2)c1,CC50 at 96 h,[1],10.1 µM
same,EC50,Hepatitis C virus [2],12.2 µM
N#Cc1ccc(NCCCn2ccnc2)cc1CN1CCN(C(c2ccccc2)c2ccccc2)CC1,CC50 at 96 h,[1],> 20 µM
same,EC50,Hepatitis C virus [2],0.243 µM
same,selectivity ratio,[3]; read-out: Ratio CC50/EC50,> 82
CN(C)CCN(C)c1ccc(C(F)(F)F)c(CN2CCN(C(c3ccccc3)c3ccc(Cl)cc3)CC2)c1 (configuration not stated),CC50 at 96 h,[1],6.96 µM
same,EC50,Hepatitis C virus [2],0.271 µM
same,selectivity ratio,[3]; read-out: Ratio CC50/EC50,26
CN1CCCN(c2ccc(C#N)c(CN3CCN(C(c4ccc(F)cc4)c4ccc(F)cc4)CC3)c2)CC1,MRT,[18],9.43 h
same,CC50 at 96 h,[1],6.24 µM
same,EC50,Hepatitis C virus [2],0.005 µM
same,selectivity ratio,[3]; read-out: Ratio CC50/EC50,1130
same,AUC(0-inf),[19],639 ng·h/mL
same,EC50,Hepatitis C virus [14],0.00289 µM
same,EC50,Hepatitis C virus [15],> 1.6 µM
same,CC50 at 96 h,[16],3.31 µM
same,CC50 at 96 h,[17],3.95 µM
same,half-life,[20],5.66 h
same,Tmax,[21],2.69 h
same,Cmax,[22],78 ng/mL
same,concentration at 24 h,[23],4.98 ng/mL
same,Activity,Hepacivirus hominis,Active
same,Activity,[4],inactive
same,Activity,Hepatitis C virus [5],inactive
same,Activity,Hepatitis C virus [6],inactive
same,Activity,Hepatitis C virus [7],Active
same,Activity,Hepatitis C virus [8],inactive
same,Activity,Hepatitis C virus [9],Active
same,Activity,Hepatitis C virus [10],inactive
same,selectivity ratio,[11],1140
same,Activity,Hepatitis C virus [12],Active
same,Activity,Hepatitis C virus [13],Active
CNCCN(C)CCN(C)c1ccc(C#N)c(CN2CCN(C(c3ccccc3)c3ccc(Cl)cc3)CC2)c1 (configuration not stated),CC50 at 96 h,[1],4.71 µM
same,EC50,Hepatitis C virus [2],0.095 µM
same,selectivity ratio,[3]; read-out: Ratio CC50/EC50,49
CN(C)CCN(C)c1ccc(C#N)c(CN2CCN(C(c3ccc(Cl)cc3)c3ccc(Cl)cc3)CC2)c1,CC50 at 96 h,[1],3.33 µM
same,EC50,Hepatitis C virus [2],0.003 µM
CN(C)CCN(C)c1ccc(C#N)c(CN2CCN(C(c3ccccc3)c3ccccc3)CC2)c1,CC50 at 96 h,[1],> 20 µM
same,EC50,Hepatitis C virus [2],0.045 µM
same,selectivity ratio,[3]; read-out: Ratio CC50/EC50,> 444
CN1CCCN(c2ccc(C#N)c(CN3CCN(c4ccc(Cl)cc4)CC3)c2)CC1,CC50 at 96 h,[1],9.59 µM
same,EC50,Hepatitis C virus [2],0.11 µM
same,selectivity ratio,[3]; read-out: Ratio CC50/EC50,87
CN(C)CCN(C)c1ccc(C#N)c(CN2CCN(Cc3ccc(Cl)cc3)CC2)c1,CC50 at 96 h,[1],18.1 µM
same,EC50,Hepatitis C virus [2],1.04 µM
same,selectivity ratio,[3]; read-out: Ratio CC50/EC50,17
